This is an account of results in US20250228838A1, “METHODS OF USE OF CYCLIC AMIDE DERIVATIVES TO TREAT SIGMA RECEPTOR MEDIATED DISORDERS” (Minerva Neurosciences, Inc., priority 2010, published 2025).

Each structure is given as a SMILES string.

In data set [1] the test system is patients with DSM-IV schizophrenia. Briefly: Phase 2 double-blind, randomized, placebo-controlled clinical study of CYR-101. The format is in vivo, human. Here is the method: A study was conducted using the compound of formula II, to examine the efficacy on schizophrenia and treatment of symptoms of schizophrenia. The study was a multi-center, inpatient and ambulatory, phase 2, double-blind, randomized, placebo-controlled proof of concept study of the compound of formula II in patients with DSM-IV schizophrenia. The study used 21 centers across three different countries. The study was designed to test the therapeutic efficacy of the compound of formula II on all dimensions of schizophrenic disease (E.g., positive, negative, and general symptoms, cognition, sleep, mood and anxiety). The study also examined the safety of the administered doses of the compound of formula II (also referred to herein as CYR-101), including heart repolarization (i.e., QT interval), weight change, adverse events, prolactin, and extrapyramidal symptoms). The study was conducted for a time period of three months. […] In one aspect of the study, the dosage of compound was titrated up to 32 mg b.i.d. The resulting data was analyzed one of three ways: 1.) Safety set; 2.) Full analysis set, with each patient having at least one PANSS evaluation after treatment initiation included in the efficacy analysis. The LOCF method is used; and 3.) Per protocol set, where for certain analyses, all patients having completed three months of treatment are included. ANCOVA followed by a contrast analysis at each time point were applied and in some cases, a non-parametric Wilcoxon test was used.

The target of the next data set is sigma 2 receptor (Homo sapiens, UniProt Q5BJF2). The following applies: cited from earlier work.
Sequence of sigma 2 receptor (Q5BJF2 whole entry, species assumed): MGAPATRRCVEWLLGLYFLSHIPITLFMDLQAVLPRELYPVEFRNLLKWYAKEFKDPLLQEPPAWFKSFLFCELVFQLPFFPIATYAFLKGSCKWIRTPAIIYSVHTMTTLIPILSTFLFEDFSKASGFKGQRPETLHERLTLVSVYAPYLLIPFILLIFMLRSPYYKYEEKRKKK
A further data set has as its target 5-HT2A (Homo sapiens, UniProt P28223). To be noted: cited from earlier work.
A further data set deals with dopamine. To be noted: cited from earlier work.

Sequence of 5-HT2A (P28223 whole entry, species assumed): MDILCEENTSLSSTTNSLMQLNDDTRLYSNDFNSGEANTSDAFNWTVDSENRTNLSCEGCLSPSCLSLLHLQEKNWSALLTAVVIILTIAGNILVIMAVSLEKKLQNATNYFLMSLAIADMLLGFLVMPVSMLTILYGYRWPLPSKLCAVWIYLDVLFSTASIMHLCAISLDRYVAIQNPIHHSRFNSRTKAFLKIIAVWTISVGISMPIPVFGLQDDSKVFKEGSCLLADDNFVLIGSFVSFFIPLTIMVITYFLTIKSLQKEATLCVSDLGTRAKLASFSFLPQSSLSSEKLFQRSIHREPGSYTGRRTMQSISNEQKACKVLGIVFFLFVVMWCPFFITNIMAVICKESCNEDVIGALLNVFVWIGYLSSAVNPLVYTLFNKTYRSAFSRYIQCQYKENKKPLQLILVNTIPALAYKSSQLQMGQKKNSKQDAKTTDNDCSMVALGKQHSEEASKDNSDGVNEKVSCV

Consider `O=C(CN1CCC(CN2Cc3ccccc3C2=O)CC1)c1ccc(F)cc1` [CYR-101, 2-[[1-[2-(4-Fluorophenyl)-2-oxoethyl]piperidin-4-yl]methyl]isoindolin-1-one], for which, in data set [1] (doses up to 32 mg b.i.d., clinically acceptable limits E.g. 10-15 milliseconds or less), the QT interval entry is “did not cross clinically acceptable limits”. Also, in data set [1] (full analysis set (FAS)), the “cognitive performances assessed by BACS, versus placebo” value was “no differences between the placebo group and the CYR-101 group, except for the Token motor task”. Besides, the “cognitive performances assessed by BACS, versus placebo” value in data set [1] (per protocol set (PPC) at D84, Token motor task, list learning task, verbal fluency, processing speed, not statistically significant) is given as “slight difference in favour of CYR-101 group”. Moreover, in data set [1] (schizophrenic patients), the “duration of continued improvement in both positive and negative symptoms” value is listed as “continued for more than twelve weeks”; the effect on cognition entry is listed as “positive effect on cognition”; the “mood, anxiety and sleep” value was “some improvements of mood, anxiety and sleep”. Further, the “improvement in positive symptoms” value in data set [1] (schizophrenic patients, PANSS) is given as “did not improve until after the first four weeks of treatment”. Also, in data set [1] (schizophrenic patients, PANSS, course of treatment), the “improvement in negative symptoms” value is “observed immediately, and continued through the course of treatment”. In data set [1] (schizophrenic patients, three months, titrated up to 32 mg b.i.d.), the “emergence or worsening of extrapyramidal symptoms, CYR-101 versus placebo” value is on record as “no significant difference”. In data set [1] (three SAE in total, two in placebo group, unlikely related to CYR-101), the “number of SAE in the active treatment group” value is “one”. The Ki on sigma 2 receptor (Table 3 of U.S. Pat. No. 7,166,617, read-out: affinity for the sigma 2 receptor) is 13 nM. Further, on sigma 2 receptor, the “mode of action at sigma 2” value is reported as “antagonist” and the “sigma 2 selectivity of receptor binding” value was “sigma 2-selective receptor binding”. Also, the “mode of action at 5-HT2A” value on 5-HT2A is given as “antagonist”. For the same compound, the dopamine binding entry in the data set with dopamine was “devoid of dopamine binding properties”.
